Test results: ChEMBL document CHEMBL6109083, “Design, synthesis, and antitumor activity of NSDs inhibitors targeting lung squamous cell carcinoma” (Eur J Med Chem, 2025)

Columns and labels:
[1] = system: Lewis lung carcinoma cell line; assay: Antiproliferative activity against mouse Lewis lung carcinoma cell line assessed as reduction in cell viability at 0.4 uM by CCK8 assay; type: functional, cell-based; conditions: time 3-6 day
NCI-H1975 = assay: Antiproliferative activity against human NCI-H1975 cells assessed as reduction in cell viability at 0.4 uM by CCK8 assay; type: functional, cell-based; conditions: time 3-6 day
NCI-H1299 = assay: Antiproliferative activity against human NCI-H1299 cells assessed as reduction in cell viability at 0.4 uM by CCK8 assay; type: functional, cell-based; conditions: time 3-6 day
[2] = Half life in male ICR mouse at 1 mg/kg, iv measured up to 24 hrs by LC-MS/MS analysis; type: ADME, organism-based; conditions: in vivo
[3] = Observed AUC (0 to infinity) in male ICR mouse at 1 mg/kg, iv measured up to 24 hrs by LC-MS/MS analysis; type: ADME, organism-based; conditions: in vivo

## O=C1C(Cl)=C(NCCc2cccc(F)c2)C(=O)c2ncccc21
[1]
  Activity: Time-dependent-effect
NCI-H1975
  Activity: Time-dependent-effect
NCI-H1299
  Activity: Time-dependent-effect
[2]
  half-life: 12 min
[3]
  AUC(0-inf): 10.1 ng·h/mL
